In the supplement of paper PMC11061612:

What was measured:
[1] = test system: CCK-81 (Colorectal Carcinoma); experiment: Bliss excess, mean over the matrix (fraction); higher = more synergy
Outline: (§1)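 Cell lines grown in DMEM/F12 or RPMI with 10% FBS were plated in 1536-well plates and held 24 hours at 37°C, 5% CO2 before 72 hours of exposure to two-drug dose matrices, with DMSO typically at 0.2%. CellTiter-Glo 2.0 luminescence gave viability, which was converted to inhibition. Vehicle wells were set to 0 and blank wells to 1. Combination Emax is the second-highest inhibition in the matrix, and Bliss excess is the observed combination effect minus the expected EA + EB − EA·EB, where EA and EB are the single-agent effects.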

[2] = test system: VCaP (Prostate Carcinoma); experiment: as above
Outline: as §1

[3] = test system: NCI-H1693 (Lung Adenocarcinoma); experiment: as above
Outline: as §1

[4] = test system: ECC10 (Gastric Carcinoma); experiment: as above
Outline: as §1

[5] = test system: A3-KAW (B-Cell Non-Hodgkin's Lymphoma); experiment: as above
Outline: as §1

[6] = test system: NY (Osteosarcoma); experiment: as above
Outline: as §1

[7] = test system: A549 (Lung Adenocarcinoma); experiment: as above
Outline: as §1

[8] = test system: NCI-H2066 (Squamous Cell Lung Carcinoma); experiment: as above
Outline: as §1

[9] = test system: Hs-445 (Non-Cancerous); experiment: as above
Outline: as §1

[10] = test system: TT2609-C02 (Thyroid Gland Carcinoma); experiment: as above
Outline: as §1

[11] = test system: COR-L311 (Small Cell Lung Carcinoma); experiment: as above
Outline: as §1

[12] = test system: CAS-1 (Glioblastoma); experiment: as above
Outline: as §1

[13] = test system: TT (Thyroid Gland Carcinoma); experiment: as above
Outline: as §1

[14] = test system: NCI-H1666 (Lung Adenocarcinoma); experiment: as above
Outline: as §1

[15] = test system: NCI-H64 (Small Cell Lung Carcinoma); experiment: as above
Outline: as §1

[16] = test system: COLO-320-HSR (Colorectal Carcinoma); experiment: as above
Outline: as §1

[17] = test system: PANC-10-05 (Pancreatic Carcinoma); experiment: as above
Outline: as §1

[18] = test system: NCI-H1693 (Lung Adenocarcinoma); experiment: combination Emax (second highest fraction inhibited in the dose matrix, 72 h); higher = more inhibition; extreme values may be limits of the assay
Outline: as §1

[19] = test system: SISO (Cervical Carcinoma); experiment: as above
Outline: as §1

[20] = test system: NCI-H2141 (Small Cell Lung Carcinoma); experiment: as above
Outline: as §1
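Throughout, for Bliss excess, mean over the matrix: after 72 h of two-drug dosing.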

SMILES	Bliss excess [1]	Bliss excess [2]	Bliss excess [3]	Bliss excess [4]	Bliss excess [5]	Bliss excess [6]	Bliss excess [7]	Bliss excess [8]	Bliss excess [9]	Bliss excess [10]	Bliss excess [11]	Bliss excess [12]	Bliss excess [13]	Bliss excess [14]	Bliss excess [15]	Bliss excess [16]	Bliss excess [17]	combination Emax [18]	combination Emax [19]	combination Emax [20]
CN(CCO)CC[C@H](CSc1ccccc1)Nc1ccc(S(=O)(=O)NC(=O)c2ccc(N3CCC([C@@H](O)c4ccccc4-c4ccc(Cl)cc4)CC3)cc2)cc1S(=O)(=O)C(F)(F)F [AZD4320] + C=CCn1c(=O)c2cnc(Nc3ccc(N4CCN(C)CC4)cc3)nc2n1-c1cccc(C(C)(C)O)n1 [AZD1775] (first compound max 1 µM, partner max 1 µM)	-0.0198	0.0072	-0.0047	0.136	0.0279	0.0694	-0.0429	-0.0534	0.165	-0.0244	-0.0091	0.0261	-0.0048	-0.0717	0.0886	-0.0268	-0.0174	0.355	0.549	1
CN(CCO)CC[C@H](CSc1ccccc1)Nc1ccc(S(=O)(=O)NC(=O)c2ccc(N3CCC([C@@H](O)c4ccccc4-c4ccc(Cl)cc4)CC3)cc2)cc1S(=O)(=O)C(F)(F)F [AZD4320] + CCN(CCO)CCCOc1ccc2c(Nc3cc(CC(=O)Nc4cccc(F)c4)[nH]n3)ncnc2c1 [AZD2811] (first compound max 1 µM, 7x7, partner max 1 µM)	-0.0345	0.0003	-0.003	0.0193	0.0628	-0.0182	-0.149	-0.0391	0.175	0.0411	0.0249	0.0208	0.0345	-0.0283	0.158	-0.0087	-0.0758	0.221	0.401	0.896
CN(CCO)CC[C@H](CSc1ccccc1)Nc1ccc(S(=O)(=O)NC(=O)c2ccc(N3CCC([C@@H](O)c4ccccc4-c4ccc(Cl)cc4)CC3)cc2)cc1S(=O)(=O)C(F)(F)F [AZD4320] + CN(C)CCCOc1ccc(-c2ccc3ncc4c(c3c2)n(C2CCOCC2)c(=O)n4C)cn1 [AZD0156] (first compound max 1 µM, 7x7, partner max 1 µM)	-0.0009	-0.0185	-0.0226	0.0096	-0.0197	-0.0432	-0.039	-0.092	-0.0732	-0.0325	0.0177	-0.0328	-0.0778	-0.0508	0.0003	-0.0136	-0.0489	0.19	0.0433	0.801
CN(CCO)CC[C@H](CSc1ccccc1)Nc1ccc(S(=O)(=O)NC(=O)c2ccc(N3CCC([C@@H](O)c4ccccc4-c4ccc(Cl)cc4)CC3)cc2)cc1S(=O)(=O)C(F)(F)F [AZD4320] + C[C@@H]1COCCN1C2=NC(=NC(=C2)C3(CC3)[S@](=N)(=O)C)C4=C5C=CNC5=NC=C4 [AZD6738] (first compound max 1 µM, 7x7, partner max 10 µM)	-0.0546	-0.0287	-0.0055	-0.0256	-0.0229	0.0125	-0.0778	-0.0437	0.0592	-0.0542	-0.0005	-0.0307	-0.033	-0.0645	-0.0404	0.0161	-0.0476	0.546	0.681	0.943
CN(CCO)CC[C@H](CSc1ccccc1)Nc1ccc(S(=O)(=O)NC(=O)c2ccc(N3CCC([C@@H](O)c4ccccc4-c4ccc(Cl)cc4)CC3)cc2)cc1S(=O)(=O)C(F)(F)F [AZD4320] + C[C@@H](Nc1cc(F)cc(F)c1)c1cc(C(=O)N(C)C)cc2c(=O)cc(N3CCOCC3)oc12 [AZD8186] (first compound max 1 µM, 7x7, partner max 3 µM)	0.0755	0.0559	0.0468	0.0229	0.0229	-0.005	-0.0964	-0.0671	0.0667	0.0003	0.0588	-0.0831	-0.061	0.0153	-0.0372	0.0504	-0.073	0.386	0.315	0.886
CN(CCO)CC[C@H](CSc1ccccc1)Nc1ccc(S(=O)(=O)NC(=O)c2ccc(N3CCC([C@@H](O)c4ccccc4-c4ccc(Cl)cc4)CC3)cc2)cc1S(=O)(=O)C(F)(F)F [AZD4320] + Cc1cc2ncnn2cc1Nc1ncc2c(n1)n(C1CCOCC1)c(=O)n2C [AZD7648] (first compound max 1 µM, 7x7, partner max 10 µM)	-0.0091	-0.0185	-0.0639	0.025	0.0296	-0.018	-0.0263	0.0299	0.0079	-0.0367	0.0219	-0.048	-0.0694	-0.0352	-0.0449	-0.0099	-0.0652	0.174	0.0433	0.829
CN(CCO)CC[C@H](CSc1ccccc1)Nc1ccc(S(=O)(=O)NC(=O)c2ccc(N3CCC([C@@H](O)c4ccccc4-c4ccc(Cl)cc4)CC3)cc2)cc1S(=O)(=O)C(F)(F)F [AZD4320] + Cn1cnc2c(F)c(Nc3ccc(Br)cc3Cl)c(C(=O)NOCCO)cc21 [Selumetinib] (first compound max 1 µM, 7x7, partner max 3 µM)	0.133	0.0322	0.0031	0.027	0.0747	0.0072	0.0226	0.0432	0.0606	-0.0046	-0.0034	-0.054	-0.033	0.0676	0.0427	0.0102	0.0065	0.459	0.304	0.893
COc1nnc2ccc(N3CCC(c4ccc(OCCN5CCN(C)C(=O)[C@H]5C)cc4)CC3)nn12 [AZD5153] + C=CCn1c(=O)c2cnc(Nc3ccc(N4CCN(C)CC4)cc3)nc2n1-c1cccc(C(C)(C)O)n1 [AZD1775] (first compound max 1 µM, partner max 1 µM)	-0.0558	-0.0756	-0.0888	-0.0116	-0.0093	0.0119	-0.0902	-0.0503	-0.192	-0.0508	-0.06	-0.0825	-0.0629	-0.0944	-0.0114	-0.0801	-0.132	0.565	0.65	0.659
COc1nnc2ccc(N3CCC(c4ccc(OCCN5CCN(C)C(=O)[C@H]5C)cc4)CC3)nn12 [AZD5153] + CC1(C)CCC(CN2CCN(c3ccc(C(=O)NS(=O)(=O)c4ccc(NCC5CCOCC5)c([N+](=O)[O-])c4)c(Oc4cnc5[nH]ccc5c4)c3)CC2)=C(c2ccc(Cl)cc2)C1 [Venetoclax] (first compound max 1 µM, 7x7, partner max 1 µM)	-0.054	-0.0486	-0.0464	0.0248	-0.0095	-0.0722	-0.0659	-0.0919	0.0178	-0.106	0.0389	-0.0621	-0.0116	-0.0603	-0.0455	-0.0657	-0.119	0.514	0.33	0.262
COc1nnc2ccc(N3CCC(c4ccc(OCCN5CCN(C)C(=O)[C@H]5C)cc4)CC3)nn12 [AZD5153] + CCN(CCO)CCCOc1ccc2c(Nc3cc(CC(=O)Nc4cccc(F)c4)[nH]n3)ncnc2c1 [AZD2811] (first compound max 1 µM, 7x7, partner max 1 µM)	-0.0361	-0.0345	-0.098	-0.103	0.0269	-0.0314	-0.0407	-0.0352	-0.0783	-0.076	-0.0357	-0.0797	-0.0755	-0.0376	0.0609	-0.0417	-0.0713	0.46	0.486	0.297
COc1nnc2ccc(N3CCC(c4ccc(OCCN5CCN(C)C(=O)[C@H]5C)cc4)CC3)nn12 [AZD5153] + C[C@@H]1COCCN1C2=NC(=NC(=C2)C3(CC3)[S@](=N)(=O)C)C4=C5C=CNC5=NC=C4 [AZD6738] (first compound max 1 µM, 7x7, partner max 10 µM)	0.0184	-0.0521	-0.0383	0.0654	-0.006	-0.0188	-0.0292	-0.0454	-0.0475	0.0179	-0.0501	0.0116	0.0167	-0.0271	0.0357	0.0292	-0.0928	0.597	0.757	0.578
